Source: ChEMBL document CHEMBL1137593, “Identification and optimisation of a series of substituted 5-pyridin-2-yl-thiophene-2-hydroxamic acids as potent histone deacetylase (HDAC) inhibitors” (Bioorg Med Chem Lett, 2007)

Experiments:
[1] = target: Histone deacetylase 1 (Homo sapiens, UniProt Q13547); test: Inhibition of HDAC activity measured by HDAC Fluorescent Activity Assay (mean of two experiments); format: functional
[2] = system: MCF7; test: Inhibition of MCF7 cell proliferation (mean of two experiments); format: functional, cell-based; settings: Homo sapiens
[3] = system: HCT-116; test: cells; format: functional, cell-based; settings: Homo sapiens;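 note: inhibition of HCT116 cell growth as proliferation read-out, each value averaged over two experiments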
Description: Inhibition of HCT116 cell proliferation (mean of two experiments)

[4] = Steady state volume of distribution (Vdss) after i.v. dosing at 1 mg kg-1; format: ADME, organism-based; set-up: dose 1 mg kg-1, route intravenous; settings: in vivo, iv, read-out: Vdss
[5] = AUC after i.p. dosing at 5 mg kg-1; format: ADME, organism-based; set-up: dose 5 mg kg-1, route intraperitoneal; settings: mouse, plasma, ip
[6] = Bioavailability after i.p. dosing at 5 mg kg-1; format: ADME, organism-based; settings: mouse, in vivo, ip
[7] = system: Mus musculus; test: (§1) AUC after oral dosing at 5 mg kg-1; format: ADME, organism-based, Plasma; set-up: dose 5 mg kg-1, route oral; settings: in vivo
[8] = Half life after i.v. dosing at 1 mg kg-1; format: ADME, organism-based; set-up: dose 1 mg kg-1, route intravenous; settings: in vivo, iv
[9] = Microsome stability: percent compound remaining; format: ADME; settings: microsomes
[10] = target: CYP2D6 (Homo sapiens, UniProt P10635); test: Percent inhibition of CYP450 2D6 at 1uM concentration; format: ADME
Chain of CYP2D6 (P10635 whole entry): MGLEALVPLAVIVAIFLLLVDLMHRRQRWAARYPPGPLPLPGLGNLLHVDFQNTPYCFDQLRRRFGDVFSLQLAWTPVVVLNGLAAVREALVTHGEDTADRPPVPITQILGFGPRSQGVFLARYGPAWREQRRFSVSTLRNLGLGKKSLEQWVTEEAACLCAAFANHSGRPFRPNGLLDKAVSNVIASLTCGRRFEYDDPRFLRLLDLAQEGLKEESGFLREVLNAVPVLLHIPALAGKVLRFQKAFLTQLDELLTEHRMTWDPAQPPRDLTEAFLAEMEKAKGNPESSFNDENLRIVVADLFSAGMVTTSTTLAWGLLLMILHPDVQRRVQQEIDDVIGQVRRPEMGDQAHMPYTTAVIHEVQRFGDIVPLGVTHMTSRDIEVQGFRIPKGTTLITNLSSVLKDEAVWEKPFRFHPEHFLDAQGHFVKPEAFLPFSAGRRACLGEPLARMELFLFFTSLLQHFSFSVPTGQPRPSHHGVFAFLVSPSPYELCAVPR

[11] = as §1; format: ADME, organism-based; set-up: dose 5 mg kg-1, route oral; settings: rat, plasma
[12] = target: T1, CYP1A2 (Homo sapiens, UniProt P05177); test: Percent inhibition of CYP450 1A2 at 1 uM concentration; format: ADME
T1 sequence (P05177 whole entry): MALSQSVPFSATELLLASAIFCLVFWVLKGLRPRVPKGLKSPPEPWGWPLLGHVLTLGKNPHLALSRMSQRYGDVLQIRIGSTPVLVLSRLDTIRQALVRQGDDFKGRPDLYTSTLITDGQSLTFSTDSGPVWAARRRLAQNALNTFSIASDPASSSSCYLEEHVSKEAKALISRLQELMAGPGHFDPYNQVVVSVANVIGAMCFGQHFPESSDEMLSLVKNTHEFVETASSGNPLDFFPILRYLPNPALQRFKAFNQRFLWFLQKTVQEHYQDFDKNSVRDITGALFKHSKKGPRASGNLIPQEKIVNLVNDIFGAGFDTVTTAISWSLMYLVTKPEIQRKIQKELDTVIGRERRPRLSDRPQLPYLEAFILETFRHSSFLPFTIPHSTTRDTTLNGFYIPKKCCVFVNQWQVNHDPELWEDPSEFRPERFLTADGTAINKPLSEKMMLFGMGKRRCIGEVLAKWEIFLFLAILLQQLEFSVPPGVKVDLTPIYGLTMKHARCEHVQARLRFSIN

[13] = system: Mus musculus; test: (§2) Oral bioavailability after oral dosing at 5 mg kg-1; format: ADME, organism-based; settings: in vivo
[14] = as §2; format: ADME, organism-based; settings: in vivo
[15] = Permeability (Papp) run from pH 6.5-7.4; format: ADME, cell-based; settings: human, Caco-2, pH 6.5
[16] = system: Mus musculus; test: (§3) Clearance after i.v. dosing at 1 mg kg-1; format: ADME, organism-based; set-up: dose 1 mg kg-1, route intravenous; settings: in vivo, iv
[17] = as §3; format: ADME, organism-based; set-up: dose 1 mg kg-1, route intravenous; settings: in vivo, iv
[18] = target: CYP2C9 (Homo sapiens, UniProt P11712); test: Percent inhibition of CYP450 2C9 at 1 uM concentration; format: ADME
Chain of CYP2C9 (P11712 whole entry): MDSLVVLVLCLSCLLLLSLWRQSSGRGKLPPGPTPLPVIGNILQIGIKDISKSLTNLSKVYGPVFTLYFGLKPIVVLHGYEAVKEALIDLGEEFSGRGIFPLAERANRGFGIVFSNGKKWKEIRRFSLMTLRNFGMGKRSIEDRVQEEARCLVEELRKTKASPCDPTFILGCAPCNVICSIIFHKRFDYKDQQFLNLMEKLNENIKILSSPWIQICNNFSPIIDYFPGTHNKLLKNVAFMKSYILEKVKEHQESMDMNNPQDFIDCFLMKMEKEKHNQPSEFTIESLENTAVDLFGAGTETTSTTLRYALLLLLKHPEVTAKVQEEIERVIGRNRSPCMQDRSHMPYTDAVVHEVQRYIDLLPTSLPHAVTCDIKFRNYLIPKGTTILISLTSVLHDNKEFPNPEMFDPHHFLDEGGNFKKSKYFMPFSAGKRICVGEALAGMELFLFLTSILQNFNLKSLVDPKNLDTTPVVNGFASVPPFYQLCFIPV

[19] = target: CYP2C19 (Homo sapiens, UniProt P33261); test: Percent inhibition of CYP450 2C19 at 1 uM concentration; format: ADME
Chain of CYP2C19 (P33261 whole entry): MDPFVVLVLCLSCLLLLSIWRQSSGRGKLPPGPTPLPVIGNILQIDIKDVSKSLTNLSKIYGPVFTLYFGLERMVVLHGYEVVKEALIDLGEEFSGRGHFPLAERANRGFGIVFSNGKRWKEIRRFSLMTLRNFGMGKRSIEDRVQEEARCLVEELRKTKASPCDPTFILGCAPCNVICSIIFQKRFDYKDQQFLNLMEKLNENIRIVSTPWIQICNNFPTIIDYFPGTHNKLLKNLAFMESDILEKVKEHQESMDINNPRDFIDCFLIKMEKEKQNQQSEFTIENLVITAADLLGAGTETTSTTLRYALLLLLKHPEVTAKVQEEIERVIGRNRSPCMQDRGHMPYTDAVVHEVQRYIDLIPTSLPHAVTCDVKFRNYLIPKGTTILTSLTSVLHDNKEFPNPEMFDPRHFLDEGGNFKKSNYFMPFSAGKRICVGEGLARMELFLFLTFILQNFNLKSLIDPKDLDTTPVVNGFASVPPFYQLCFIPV

[20] = target: Cytochrome P450 3A4 (Homo sapiens, UniProt P08684); test: Inhibition of CYP450 3A4; format: ADME
Chain of Cytochrome P450 3A4 (P08684 whole entry): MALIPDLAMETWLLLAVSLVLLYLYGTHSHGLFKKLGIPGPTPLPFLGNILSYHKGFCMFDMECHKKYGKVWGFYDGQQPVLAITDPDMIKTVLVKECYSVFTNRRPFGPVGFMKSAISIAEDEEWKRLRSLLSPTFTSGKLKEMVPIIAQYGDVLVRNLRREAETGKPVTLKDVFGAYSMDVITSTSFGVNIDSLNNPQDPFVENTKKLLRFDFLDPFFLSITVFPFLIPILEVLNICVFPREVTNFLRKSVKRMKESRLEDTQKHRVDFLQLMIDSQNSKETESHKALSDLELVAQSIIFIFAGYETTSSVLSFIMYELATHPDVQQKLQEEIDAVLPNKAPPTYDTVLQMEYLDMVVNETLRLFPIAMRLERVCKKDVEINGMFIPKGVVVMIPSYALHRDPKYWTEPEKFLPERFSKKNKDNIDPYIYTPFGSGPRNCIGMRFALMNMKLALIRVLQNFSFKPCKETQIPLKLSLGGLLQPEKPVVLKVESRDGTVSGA

[21] = Hepatocyte stability; format: ADME, cell-based; settings: hepatocytes
[22] = system: MDA-MB-231; test: cells; format: functional, cell-based; settings: Homo sapiens
Description: Inhibition of MDA-MB-231 cell proliferation (mean of two experiments)

[23] = as §1; format: ADME, organism-based, Plasma; set-up: dose 5 mg kg-1, route oral; settings: mouse, plasma

Chain of Histone deacetylase 1 (Q13547 whole entry): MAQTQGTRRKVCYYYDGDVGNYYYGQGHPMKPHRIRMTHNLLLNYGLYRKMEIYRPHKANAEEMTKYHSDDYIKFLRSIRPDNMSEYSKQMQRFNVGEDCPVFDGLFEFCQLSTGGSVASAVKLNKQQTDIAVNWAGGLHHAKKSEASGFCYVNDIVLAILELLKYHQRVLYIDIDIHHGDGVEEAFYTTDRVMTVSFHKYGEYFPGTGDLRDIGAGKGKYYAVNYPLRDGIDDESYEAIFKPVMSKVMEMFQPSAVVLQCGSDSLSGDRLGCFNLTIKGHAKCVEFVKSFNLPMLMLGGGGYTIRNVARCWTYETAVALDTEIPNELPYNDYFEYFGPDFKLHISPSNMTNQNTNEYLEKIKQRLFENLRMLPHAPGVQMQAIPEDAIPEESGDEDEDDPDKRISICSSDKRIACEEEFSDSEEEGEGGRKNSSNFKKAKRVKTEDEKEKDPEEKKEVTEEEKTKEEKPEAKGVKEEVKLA

For `O=C(NO)c1ccc(-c2cccs2)s1`, the IC50 [1] was 2500 nM and the IC50 [2] was > 100000 nM.

Compound `Cc1ccccc1CCNCc1ccc(-c2ccc(C(=O)NO)s2)nc1` has an IC50 [1] of 8 nM, an IC50 [3] of 70 nM and an IC50 [2] of 90 nM.

With `Cc1cccc(CCNCc2ccc(-c3ccc(C(=O)NO)s3)nc2)c1` the IC50 [1] was 9 nM, the IC50 [3] was 90 nM and the IC50 [2] was 60 nM.

`O=C(NO)c1ccc(-c2cccc(CNCCc3ccccc3)n2)s1` showed an IC50 [1] of 581 nM and an IC50 [2] of 3840 nM.

`O=C(NO)c1ccc(-c2ccn(CCNCc3ccc4c(c3)OCO4)n2)s1` showed a Vd ([4]; mouse) of 0.4 L/kg, a Vd ([4]; rat) of 0.9 L/kg and an AUC [5] of 7200 ng·h/mL. The bioavailability [6] was 85%, the AUC [7] was 900 ng·h/mL and the half-life ([8]; mouse) was 2.5 h. It also gave a half-life ([8]; rat) of 1.6 h, a Percent remaining ([9]; human) of 55% and a Percent remaining ([9]; mouse) of 5%. For the same compound, the inhibition at 1 µM [10] was 8%, the AUC [11] was 100 ng·h/mL and the inhibition at 1 µM [12] was 9%. For the same compound, the F [13] was 1%, the bioavailability ([14]; rat) was 2% and the Papp [15] was 4.2 ×10⁻⁶ cm/s. It also gave a CL [16] of 10 mL/min/kg, a clearance ([17]; rat) of 21 mL/min/kg and an inhibition at 1 µM [18] of 0%. The inhibition at 1 µM [19] was 71%, the IC50 [20] was 53000 nM and the Hepatocyte stability ([21]; human) was 15 uL/min/10e6 cells. It also gave a Hepatocyte stability ([21]; rat) of 26 uL/min/10e6 cells.

`O=C(NO)c1ccc(-c2ccc(CNCCc3cccc4occc34)cn2)s1` gave an IC50 [1] of 4 nM, an IC50 [3] of 120 nM and an IC50 [2] of 60 nM.

With `O=C(NO)c1ccc(-c2ccc(CNCCc3ccccc3)cn2)s1` the IC50 [22] was 200 nM, the IC50 [1] was 12 nM and the IC50 [2] was 70 nM.

Compound `O=C(NO)c1ccc(-c2ccc(CNCc3ccccc3)cn2)s1` has a Vd ([4]; mouse) of 1.1 L/kg, a Vd ([4]; rat) of 2.9 L/kg and an AUC [5] of 1250 ng·h/mL. For the same compound, the bioavailability [6] was 100%, the AUC [23] was 360 ng·h/mL and the IC50 [22] was 220 nM. The half-life ([8]; mouse) was 0.17 h, the half-life ([8]; rat) was 2.7 h and the Percent remaining ([9]; human) was 88%. It also gave a Percent remaining ([9]; mouse) of 35%, an inhibition at 1 µM [10] of 1% and an AUC [11] of 3300 ng·h/mL. It also gave an inhibition at 1 µM [12] of 17%, an IC50 [1] of 16 nM and a bioavailability ([14]; mouse) of 36%. The bioavailability ([14]; rat) was 50%, the Papp [15] was 15.4 ×10⁻⁶ cm/s and the clearance ([17]; mouse) was 83 mL/min/kg. It also gave a clearance ([17]; rat) of 13 mL/min/kg, an inhibition at 1 µM [18] of -14% and an inhibition at 1 µM [19] of -4%. The IC50 [3] was 110 nM, the IC50 [20] was 26000 nM and the Hepatocyte stability ([21]; human) was 7 uL/min/10e6 cells. For the same compound, the Hepatocyte stability ([21]; rat) was 27 uL/min/10e6 cells and the IC50 [2] was 80 nM.

For `O=C(NO)c1ccc(-c2ccncc2)s1`, the IC50 [1] was 1260 nM.
